Structures are written as SMILES. Counter-ions that a name gives are not always drawn.

The first test has as its system HMOX1. Briefly: HMOX1 Protein Assay (immunostaining of HO-1 in NHLF cells, GE InCell 1000). The class given is cell-based. The note with it: Homo sapiens, fold change above DMSO treated cells, 3 μM compound (asterisk), 16 h. The procedure, abridged:
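NHLF cells seeded overnight in FGM-2, then exposed to compound or DMSO vehicle for 16 h, fixed, and immunostained for HO-1 with Hoechst nuclear counterstain; imaged on InCell 1000. Values are fold change over DMSO-treated cells, generally at 5 μM (0.8% DMSO), with asterisked entries at 3 μM.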
What is called fold induction is the signal under treatment as a multiple of the control signal. Take `CC(O)CCNC(=O)c1ccc2c(c1)nc(Nc1nc3ccc(Cl)cc3s1)n2C` (stereo not drawn) [Example 215, 2-(6-Chloro-benzothiazol-2-ylamino)-1-methyl-1H-benzoimidazole-5-carboxylic acid (3-hydroxy-butyl)-amide]: the fold induction at 3 µM was 16.
On the same count and under the same terms, in the case of `Cn1c(Nc2nc3ccc(OC(F)(F)F)cc3s2)nc2cc(C(=O)NCC(=O)N3CCC(C#N)CC3)ccc21` [Example 450, 1-Methyl-2-(6-trifluoromethoxy-benzothiazol-2-ylamino)-1H-benzoimidazole-5-carboxylic acid [2-(4-cyano-piperidin-1-yl)-2-oxo-ethyl]-amide] it was 51; in that of `CO[C@H]1CCN(C(=O)CNC(=O)c2ccc3c(c2)nc(Nc2nc4ccc(Cl)cc4s2)n3C)C1` [Example 409, 2-(6-Chloro-benzothiazol-2-ylamino)-1-methyl-1H-benzoimidazole-5-carboxylic acid [2-((S)-3-methoxy-pyrrolidin-1-yl)-2-oxo-ethyl]-amide], 29.
The molecule `Cn1c(Nc2nc3ccc(Cl)cc3s2)nc2cc(C(=O)NCCC(=O)N3CCOCC3)ccc21` [Example 373, 2-(6-Chloro-benzothiazol-2-ylamino)-1-methyl-1H-benzoimidazole-5-carboxylic acid (3-morpholin-4-yl-3-oxo-propyl)-amide] came in with a fold induction at 3 µM of 32.
Regarding `CCOc1ccc2nc(Nc3nc4cc(C(=O)NCC(=O)N(C)C)ccc4n3C)sc2c1` [Example 364, 2-(6-Ethoxy-benzothiazol-2-ylamino)-1-methyl-1H-benzoimidazole-5-carboxylic acid dimethylcarbamoylmethyl-amide], the fold induction at 3 µM worked out at 27.8.
Molecule `C[C@H](NC(=O)c1ccc2c(c1)nc(Nc1nc3ccc(C(F)(F)F)cc3s1)n2C)C(=O)N1CCOCC1` [Example 466, 1-Methyl-2-(6-trifluoromethyl-benzothiazol-2-ylamino)-1H-benzoimidazole-5-carboxylic acid ((S)-1-methyl-2-morpholin-4-yl-2-oxo-ethyl)-amide] gave a fold induction at 3 µM of 22.4.
As for `CN(C)CCCNC(=O)c1ccc2c(c1)nc(Nc1nc3ccc(C(F)(F)F)cc3s1)n2C` [Example 350, 1-Methyl-2-(6-trifluoromethyl-benzothiazol-2-ylamino)-1H-benzoimidazole-5-carboxylic acid (3-dimethylamino-propyl)-amide], the fold induction at 3 µM worked out at 24.

The same test, now with this note: Homo sapiens, fold change above DMSO treated cells, 5 μM compound, 16 h.
For the molecule `Cn1c(Nc2nc3ccc(OC(F)(F)F)cc3s2)nc2cc(C(=O)NC3(C(=O)O)CC3)ccc21` [Example 147, 1-{[1-Methyl-2-(6-trifluoromethoxy-benzothiazol-2-ylamino)-1H-benzimidazole-5-carbonyl]-amino}-cyclopropanecarboxylic acid], the fold induction at 5 µM worked out at 1.8.
On the same count and under the same terms, in the case of `Cn1c(Nc2nc3ccc(OC(F)(F)F)cc3s2)nc2cc(C(=O)O)cnc21` [Example 72, 3-Methyl-2-(6-trifluoromethoxy-benzothiazol-2-ylamino)-3H-imidazo[4,5-b]pyridine-6-carboxylic acid] it was 11.9; in that of `Cn1c(Nc2nc3ccc(OC(F)(F)F)cc3s2)nc2cc(C(=O)NCCCn3cccn3)ccc21` [Example 11, 1-Methyl-2-(6-trifluoromethoxy-benzothiazol-2-ylamino)-1H-benzoimidazole-5-carboxylic acid (3-pyrazol-1-yl-propyl)-amide], 25.
On the same count and under the same terms, under `CNCCOCCNC(=O)c1ccc2c(c1)nc(Nc1nc3ccc(Cl)cc3s1)n2C` [Example 272, 2-(6-Chloro-benzothiazol-2-ylamino)-1-methyl-1H-benzoimidazole-5-carboxylic acid [2-(2-methylamino-ethoxy)-ethyl]-amide hydrochloride] stands 86.5; under `CN(C)CC(=O)N1CC[C@@H](NC(=O)c2ccc3c(c2)nc(Nc2nc4ccc(Cl)cc4s2)n3C)C1` [Example 308, 2-(6-Chloro-benzothiazol-2-ylamino)-1-methyl-1H-benzoimidazole-5-carboxylic acid [(R)-1-(2-dimethylamino-acetyl)-pyrrolidin-3-yl]-amide], 24.3; under `C[C@H](NC(=O)c1ccc2c(c1)nc(Nc1nc3ccc(OC(F)(F)F)cc3s1)n2C)C(=O)N(C)C` [Example 149, 1-Methyl-2-(6-trifluoromethoxy-benzothiazol-2-ylamino)-1H-benzoimidazole-5-carboxylic acid ((S)-1-dimethylcarbamoyl-ethyl)-amide], 38.7.
With `Cn1c(Nc2nc3ccc(C(F)(F)F)cc3s2)nc2cc(C(=O)NCCOCCO)ccc21` [Example 236, 1-Methyl-2-(6-trifluoromethyl-benzothiazol-2-ylamino)-1H-benzoimidazole-5-carboxylic acid [2-(2-hydroxy-ethoxy)-ethyl]-amide], the fold induction at 5 µM worked out at 45.7.
The molecule `CNC(=O)c1ccc2c(c1)nc(Nc1nc3ccc(C)cc3s1)n2C` [Example 128, 2-(6-Methyl-benzothiazol-2-ylamino)-1-methyl-1H-benzimidazole-5-carboxylic acid methylamide] returned a fold induction at 5 µM of 32.7.
The molecule `Cn1c(Nc2nc3ccc(OC(F)(F)F)cc3s2)nc2cc(C(=O)NCC(=O)O)ccc21` [Example 83, {[1-Methyl-2-(6-trifluoromethoxy-benzothiazol-2-ylamino)-1H-benzoimidazole-5-carbonyl]-amino}-acetic acid] had a fold induction at 5 µM of 1.25.
`CN(C)CC(=O)N1CCC(NC(=O)c2ccc3c(c2)nc(Nc2nc4ccc(Cl)cc4s2)n3C)CC1` [Example 313, 2-(6-Chloro-benzothiazol-2-ylamino)-1-methyl-1H-benzoimidazole-5-carboxylic acid [1-(2-dimethylamino-acetyl)-piperidin-4-yl]-amide] returned a fold induction at 5 µM of 22.9.
`CNC(=O)c1ccc2nc(Nc3nc4ccc(OC(F)(F)F)cc4s3)n(C)c2c1` [Example 38, 3-Methyl-2-(6-trifluoromethoxy-benzothiazol-2-ylamino)-3H-benzoimidazole-5-carboxylic acid methylamide]: the fold induction at 5 µM worked out at 18.
Regarding `COCCNC(=O)c1ccc2c(c1)nc(Nc1nc3cc(F)ccc3s1)n2C` [Example 123, 2-(5-Fluoro-benzothiazol-2-ylamino)-1-methyl-1H-benzimidazole-5-carboxylic acid (2-methoxy-ethyl)-amide], the fold induction at 5 µM is 12.7.
Molecule `CCOC(C)CNC(=O)c1ccc2c(c1)nc(Nc1nc3ccc(OC(F)(F)F)cc3s1)n2C` (stereo not drawn) [Example 54, 1-Methyl-2-(6-trifluoromethoxy-benzothiazol-2-ylamino)-1H-benzoimidazole-5-carboxylic acid (2-ethoxy-propyl)-amide] showed a fold induction at 5 µM of 18.5.
Molecule `CCOCCNC(=O)c1cc2nc(Nc3nc4ccc(OC(F)(F)F)cc4s3)n(C)c2cc1F` [Example 57, 6-Fluoro-1-methyl-2-(6-trifluoromethoxy-benzothiazol-2-ylamino)-1H-benzoimidazole-5-carboxylic acid (2-ethoxy-ethyl)-amide] came in with a fold induction at 5 µM of 32.
On the same count and under the same terms, in the case of `CCOC(=O)c1cnc2c(c1)nc(Nc1nc3ccc(OC(F)(F)F)cc3s1)n2C` [Example 71, 3-Methyl-2-(6-trifluoromethoxy-benzothiazol-2-ylamino)-3H-imidazo[4,5-b]pyridine-6-carboxylic acid ethyl ester] it was 4.2; in that of `CCNC(=O)c1ccc2c(c1)nc(Nc1nc3ccc(OC(F)(F)F)cc3s1)n2CC(C)C` [Example 165, 1-Isobutyl-2-(6-trifluoromethoxy-benzothiazol-2-ylamino)-1H-benzoimidazole-5-carboxylic acid ethylamide], 17.9.
As for `CCSCCNC(=O)c1ccc2c(c1)nc(Nc1nc3ccc(OC(F)(F)F)cc3s1)n2C` [Example 107, 1-Methyl-2-(6-trifluoromethoxy-benzothiazol-2-ylamino)-1H-benzoimidazole-5-carboxylic acid (2-ethylsulfanyl-ethyl)-amide], the fold induction at 5 µM was determined as 18.6.
The molecule `Cn1c(Nc2nc3ccc(OC(F)(F)F)cc3s2)nc2cc(C(=O)NCCc3ccc(O)cc3)ccc21` [Example 251, 1-Methyl-2-(6-trifluoromethoxy-benzothiazol-2-ylamino)-1H-benzoimidazole-5-carboxylic acid [2-(4-hydroxy-phenyl)-ethyl]-amide] displayed a fold induction at 5 µM of 29.6.
`CCNC(=O)c1ccc2c(c1)nc(Nc1nc3ccc(OC(F)(F)F)cc3s1)n2CC` [Example 156, 1-Ethyl-2-(6-trifluoromethoxy-benzothiazol-2-ylamino)-1H-benzoimidazole-5-carboxylic acid ethylamide]: the fold induction at 5 µM is 21.
On the same count and under the same terms, under `COC(=O)c1ccc2c(c1)nc(Nc1nc3cc(F)c(F)cc3s1)n2C` [Example 33, 2-(5,6-Difluoro-benzothiazol-2-ylamino)-1-methyl-1H-benzoimidazole-5-carboxylic acid methyl ester] stands 11.7; under `CN(C)CCNC(=O)c1ccc2c(c1)nc(Nc1nc3ccc(OC(F)(F)F)cc3s1)n2C` [Example 82, 1-Methyl-2-(6-trifluoromethoxy-benzothiazol-2-ylamino)-1H-benzoimidazole-5-carboxylic acid (2-dimethylamino-ethyl)-amide], 17.
`Cn1c(Nc2nc3ccc(Cl)cc3s2)nc2cc(C(=O)NCC(C)(C)CO)ccc21` [Example 218, 2-(6-Chloro-benzothiazol-2-ylamino)-1-methyl-1H-benzoimidazole-5-carboxylic acid (3-hydroxy-2,2-dimethyl-propyl)-amide] returned a fold induction at 5 µM of 39.2.
Same read-out and setting: under `Cn1c(Nc2nc3ccc(OC(F)(F)F)cc3s2)nc2cc(C(=O)NCCN3CCOCC3)c(F)cc21` [Example 59, 6-Fluoro-1-methyl-2-(6-trifluoromethoxy-benzothiazol-2-ylamino)-1H-benzoimidazole-5-carboxylic acid (2-morpholin-4-yl-ethyl)-amide] stands 49.8.
